This is an account of results in patent US9289505B2, “Compositions and methods for delivering nucleic acid molecules and treating cancer” (Rutgers, The State University of New Jersey, priority 2010, dated 2016).

d = 2'-deoxy (DNA); r = 2'-OH (RNA)

In series [1] the test system is subcutaneous tumor xenografts of human A549 cancer cells. In words: Antitumor activity in subcutaneous A549 xenografts. To be noted: intratumoral 3 times within 10 days.
Description: NCR nude mice (female, 6 weeks, 20 g) were purchased from Taconic Farms, Inc. (Germantown, N.Y.). […] Briefly, A549 human cancer cells transfected with luciferase (5×10^6) were subcutaneously transplanted into the flanks of female athymic nu/nu mice. According to the approved institutional animal use protocol, the tumors were measured by a caliper every other day and their volumes were calculated as d^2×D/2 where d and D are the shortest and longest diameter of the tumor in mm, respectively. When the tumor reached a mean size of 50 mm^3, mice were divided into seven groups and injected intratumorally 3 times within 10 days with 150 μL of the following formulations: (1) saline (control); (2) free non-bound LHRH; (3) free non-bound siRNA; (4) free non-bound CIS; (5) Mixture of CIS and SPIO-PPI G5; (6) Mixture of CIS and SPIO-PPI G5-siRNA; and (7) Mixture of CIS and SPIO-PPI G5-siRNA-PEG-LHRH complexes. The concentrations of CIS and siRNA in the formulations were 2.5 mg/kg and 30 μM, respectively. Changes in tumor size were monitored by real-time bioluminescence in anesthetized animals by IVIS imaging system (Xenogen Bioscience, Cranbury, N.J.).
Series [2] deals with A2780 human ovarian cancer cells. Kind of series: Cellular uptake of fluorophore labeled siRNA, confocal microscopy. Format: cell-based. The conditions noted are these: living cells. On the procedure: Cellular uptake and intracellular localization of siRNA was investigated using a confocal microscopy. In this experiment, living cancer cells were incubated with fluorophore labeled naked siRNA (siGLO® Red, red fluorescence) and siRNA complexed with cationic nanocarrier PAMAM-PEG-PLL (N/P=3). Cellular uptake studied substances was monitored in living cells placed in a chamber at 37° C. within 1 hour. Cellular localization of siRNA was examined on fixed and washed cells after the incubation for 24 hours with the substances. Fluorescence and its distribution within the cell were examined using a confocal microscope.

Series [3] has as its system BCL2 mRNA. In words: BCL2 gene silencing by siRNA-dendrimer complexes, RT-PCR. Format: cell-based, human. To be noted: A549 cells, 24 hours incubation. On the procedure: Quantitative reverse transcription-polymerase chain reaction (RT-PCR) was used for the analysis of expression of genes encoding BCL2 protein and β2-microglobulin (internal standard) as previously described (Pakunlu et al. (2003) Pharm. Res., 20:351-359). RNA was isolated after 24 hours incubation of cancer cells with siRNA-dendrimer complexes, using an RNeasy kit (Qiagen, Valencia, Calif.). First strand complementary DNA (cDNA) was synthesized by Ready-To-Go You-Prime First-Strand Beads (Amersham Biosciences, Piscataway, N.J.) with […] of total cellular RNA and 100 ng of random hexadeoxynucleotide primer (Amersham Bioscience, Piscataway, N.J.). After synthesis, the reaction mixture was immediately subjected to PCR, which was carried out using GenAmp® PCR System 2400 (Perkin-Elmer, Shelton, Conn.). The following pairs of primers were used: BCL2-GGATTGTGGCCTTCTTTGAG (sense; SEQ ID NO: 6), CCAAACTGAGCAGAGTCTTC (antisense; SEQ ID NO: 7); β2-microglobulin (β2-m)-ACCCCCACTGAAAAAGATGA (sense; SEQ ID NO: 8), ATCTTCAAACCTCCATGATG (antisense; SEQ ID NO: 9). […] Gene expression was calculated as the ratio of mean band intensity of analyzed RT-PCR product (BCL2) to that of the internal standard (β2-m). […]

Series [4] relates to BCL2 gene. In words: BCL2 gene expression, RT-PCR. Format: cell-based, human. The conditions noted are these: A2780 cells, BCL2 siRNA 1 μM delivered by the named carrier, 24 hours. As for the experimental part: Reverse transcription-polymerase chain reaction (RT-PCR) was used for the analysis of gene expression (Pakunlu et al. (2004) Cancer Res., 64:6214-6224). […] After 24 hours, total cellular RNA was isolated using an RNeasy kit (Qiagen, Valencia, Calif.). […] After synthesis, the reaction mixture was immediately subjected to polymerase chain reaction (PCR), which was carried out using […] System 2400 (Perkin-Elmer, Shelton, Conn.). β2-microglobulin (β2-m) was used as an internal standard. The following pairs of primers were used: BCL2: [NT] (sense; SEQ ID NO: 6), [NT] (antisense; SEQ ID NO: 7); β2-m (internal […] (sense; SEQ ID NO: 8), [NT] (antisense; SEQ ID NO: 9). PCR regimen was as follows: 94° C. for 5 minutes; 94° C. for 1 minute, 55° C. for 1 minute, and 72° C. for 1 minute for 41 cycles; and 60° C. for 10 minutes. PCR products were separated in 4% NuSieve 3:1 Reliant-agarose gels (Lonza, Basel, Switzerland) in 1× Tris-borate EDTA buffer [0.089 mol/L Tris-borate, 0.002 mol/L EDTA (pH 8.3); Research Organics Inc., Cleveland, Ohio] by submarine electrophoresis. The gels were stained with EtBr and digitally photographed.

Series [5] in a line: Serum stability of siRNA and PAMAM-PEG-PLL-siRNA complex. Format: in vitro ADME. The conditions noted are these: 50% human serum, 37° C. On the procedure:
Serum stabilities of naked siRNA and siRNA complexed with PAMAM-PEG-PLL nanocarrier were investigated by incubating siRNA or PAMAM-PEG-PLL-siRNA complex in 50% human serum at 37° C. Ten samples were prepared by mixing siRNA (30 nmol) in water with PAMAM-PEG-PLL (74.8 nmol, N/P=3) solution in water and separately incubated for 30 minutes at room temperature. In the case of naked siRNA, equal volume of RNAase free water was used instead of nanocarrier. To each of these samples 50% human plasma was added (final siRNA concentration was 1.43 nM) and incubated at 37° C. Samples were removed at an indicated time intervals (0, 0.25, 0.5, 0.75, 1, 3, 6, 12, 24 and 50 hours) and analyzed using a gel electrophoresis (4% agarose gel at 100 V for 50 minutes) in Tris-Borate-EDTA buffer containing EtBr. siRNA bands on the gel were visualized under ultraviolet light. PAMAM-PEG-PLL-siRNA samples were pre-treated with polymethacrylic acid to release free siRNA from cationic nanocarriers. 100 μL of polymethacrylic acid solution (4 μM) was added to the complexes (triblock nanocarrier/siRNA=3) and incubated at 37° C. with 50% human plasma. The released siRNA was then analyzed by a gel electrophoresis.

For series [6], the system named is A549 human lung cancer cells. Kind of series: Cellular internalization of FAM-labelled siRNA. The conditions noted are these: 24 hours, siRNA 0.25 μM, fluorescence microscopy. Format: cell-based. As for the experimental part:
Prior to the visualization, A549 cells were plated (20,000 cells per well) in a 6-well tissue culture plate. The cells were treated within 24 hours with the siRNA complex prepared with different generations of PPI dendrimer. The treatment of the A549 cells was performed in such a manner that the final concentration of siRNA was 0.25 μM and the concentrations of PPI G2, G3, G4, and G5 dendrimers were 3.15 μM, 1.58 μM, 0.79 μM, and 0.39 μM, respectively. After 24 hours of treatment, the cells were washed three times with Phosphate Buffered Saline (PBS) and 1 mL of media was added to each well. Cellular internalization of siRNA-dendrimer complexes were analyzed by fluorescent (Olympus America Inc., Melville, N.Y.) and confocal (Leica Microsystems Inc., Bannockburn, Ill.) microscopes. To obtain intracellular distribution of siRNA, ten optical sections, known as a z-series, were photographed sequentially, by confocal microscope, along the vertical (z) axis from the top to the bottom of the cell. The obtained fluorescent images were digitally scanned and fluorescence inside cells (reflecting intracellular accumulation of labelled siRNA) was expressed in arbitrary units.

Turning to “5′-GUGAAGUCAACAUGCCUGC-dTdT-3′ (sense strand; SEQ ID NO: 4) and 5′-GCAGGCAUGUUGACUUCAC-dTdT-3′ (antisense strand; SEQ ID NO: 5) (sense GUGAAGUCAACAUGCCUGCTT; antisense GCAGGCAUGUUGACUUCACTT; sugars from the 5' end r19 d2, backbone not given here) [naked siRNA, siRNA targeted to BCL2 mRNA without carrier; fluorophore labelled siRNA used in uptake tests]”, the “tumor growth / antitumor activity” value in series [1] is on record as “did not significantly influence the growth of the tumor”. In addition, the “cellular uptake of siRNA” value in series [2] is given as “did not penetrate the cancer cells”. Moreover, in series [3], the BCL2 gene knockdown result is recorded as “Gene silencing was not observed”. Moreover, the “expression of targeted BCL2 gene, from control value” in series [4] is given as “did not influenced”. Further, the “incubation time after which siRNA started to degrade” value in series [5] worked out at 1 h. The siRNA cellular internalization entry in series [6] was “not internalized by the cells”.
